The text below walks through data of US4442044A, “Process for preparing monoesters and diesters of N-alkyl substituted amino methyl phosphonic acid” (priority 1983, dated 1984).

What all share (test): post-emergent herbicidal activity, greenhouse
What all share (type): in vivo
Common to all, as to conditions: Table I

For one assay, the system named is Cocklebur. An excerpt: (§1) A good grade of top soil is placed in aluminum pans having holes in the bottom and compacted to a depth of 0.95 to 1.27 cm. from the top of the pan. A predetermined number of seeds of each of several dicotyledonous and monocotyledonous annual plant species and/or vegetative propagules for the perennial plant species were placed on the soil and pressed into the soil surface. The seeds and/or vegetative propagules are covered with soil and leveled. The pans are then placed on a sand bench in the greenhouse and watered from below as needed. After the plants reach the desired age (two to three weeks), each pan except for the control pans is removed individually to a spraying chamber and sprayed by means of an atomizer operating at a positive air pressure of approximately 1.46 kg/cm^2 absolute. The atomizer contains 6 ml. of a solution or suspension of the chemical. In that 6 ml., is an amount of a cyclohexanone emulsifying agent mixture to give a spray solution or suspension which contains about 0.4% by weight of the emulsifier. The spray solution or suspension contains a sufficient amount of the candidate chemical in order to give application rates corresponding to those set forth in the tables. The spray solution is prepared by taking an aliquot of a 1.0% by weight stock solution or suspension of the candidate chemical in an organic solvent such as acetone or tetrahydrofuran or in water. The emulsifying agent employed is a mixture comprising 35 weight percent butylamine dodecylbenzene sulfonate and 65 weight percent of a tall oil ethylene oxide condensate having about 11 moles of ethylene oxide per mole of tall oil. The pans are returned to the greenhouse and watered as before and the injury to the plants as compared to the control is observed at approximately two and four weeks as indicated in the tables under WAT and the results recorded. In some instances, the two-week observations are omitted.
(§2) The post-emergent herbicidal activity index used in Tables I and II is as follows: […]

Another assay has as its system Barnyardgrass.
From the text: as §1, §2

For another assay, the system named is Lambsquarters.
From the text: as §1, §2

The next assay deals with Morningglory.
From the text: as §1, §2

In another assay the test system is Downy Brome.
From the text: as §1, §2

A further assay concerns Velvetleaf.
From the text: as §1, §2

A further assay has as its system Canada Thistle.
From the text: as §1, §2

The next assay has as its system Johnsongrass.
From the text: as §1, §2

Another assay has as its system Smartweed.
From the text: as §1, §2

Another assay concerns Yellow Nutsedge.
From the text: as §1, §2

In the next assay the test system is Quackgrass.
From the text: as §1, §2

`CCOC(=O)CNCP(=O)(OC(C)C(=O)OC)OC(C)C(=O)OC` (stereo not shown) [Example 18]: the “post-emergent herbicidal activity index” value is 0 (0-24% control) in the assay on Cocklebur (4 WAT, 5.6 kg/h); 0 (0-24% control) in the assay with Cocklebur (4 WAT, 11.2 kg/h); 1 (25-49% control) in the assay on Barnyardgrass (4 WAT, 5.6 kg/h); 2 (50-74% control) with Barnyardgrass (4 WAT, 11.2 kg/h); 0 (0-24% control) with Lambsquarters (4 WAT, 5.6 kg/h); 0 (0-24% control) in the assay on Lambsquarters (4 WAT, 11.2 kg/h). Further, the “post-emergent herbicidal activity index” value in the assay with Morningglory (4 WAT, 5.6 kg/h) is given as 1 (25-49% control); with Morningglory (4 WAT, 11.2 kg/h) it was 1 (25-49% control); in the assay with Downy Brome (4 WAT, 5.6 kg/h), 0 (0-24% control); in the assay with Downy Brome (4 WAT, 11.2 kg/h), 2 (50-74% control); in the assay with Velvetleaf (4 WAT, 5.6 kg/h) it was 0 (0-24% control); in the assay on Velvetleaf (4 WAT, 11.2 kg/h) it was 0 (0-24% control). The “post-emergent herbicidal activity index” value was 0 (0-24% control) in the assay with Canada Thistle (4 WAT, 5.6 kg/h); 0 (0-24% control) in the assay with Canada Thistle (4 WAT, 11.2 kg/h); 0 (0-24% control) with Johnsongrass (4 WAT, 5.6 kg/h); 1 (25-49% control) with Johnsongrass (4 WAT, 11.2 kg/h); 0 (0-24% control) with Smartweed (4 WAT, 5.6 kg/h); 0 (0-24% control) with Smartweed (4 WAT, 11.2 kg/h). For the same compound, the “post-emergent herbicidal activity index” value with Yellow Nutsedge (4 WAT, 5.6 kg/h) is 1 (25-49% control); in the assay on Yellow Nutsedge (4 WAT, 11.2 kg/h) it was 2 (50-74% control); in the assay on Quackgrass (4 WAT, 5.6 kg/h), 0 (0-24% control); with Quackgrass (4 WAT, 11.2 kg/h) it was 3 (75-99% control).
As for `CCOC(=O)CNCP(=O)(OCCSC(=O)OCC)OCCSC(=O)OCC` [Example 19, glycine, N-[[bis[2-[(ethoxycarbonyl)thio]ethoxy]-phosphinyl]methyl]-, ethyl ester], the “post-emergent herbicidal activity index” value is 0 (0-24% control) in the assay with Cocklebur (4 WAT, 5.6 kg/h); 2 (50-74% control) in the assay on Cocklebur (4 WAT, 11.2 kg/h); 1 (25-49% control) in the assay with Barnyardgrass (4 WAT, 5.6 kg/h); 2 (50-74% control) with Barnyardgrass (4 WAT, 11.2 kg/h); 0 (0-24% control) in the assay with Lambsquarters (4 WAT, 5.6 kg/h); 0 (0-24% control) in the assay on Lambsquarters (4 WAT, 11.2 kg/h). In addition, the “post-emergent herbicidal activity index” value with Morningglory (4 WAT, 5.6 kg/h) was 2 (50-74% control); in the assay with Morningglory (4 WAT, 11.2 kg/h) it was 2 (50-74% control); in the assay on Downy Brome (4 WAT, 5.6 kg/h), 0 (0-24% control); with Downy Brome (4 WAT, 11.2 kg/h), 0 (0-24% control); in the assay on Velvetleaf (4 WAT, 5.6 kg/h) it was 0 (0-24% control); in the assay with Velvetleaf (4 WAT, 11.2 kg/h), 0 (0-24% control). For the same compound, the “post-emergent herbicidal activity index” value is given as 1 (25-49% control) in the assay on Canada Thistle (4 WAT, 5.6 kg/h); 2 (50-74% control) in the assay with Canada Thistle (4 WAT, 11.2 kg/h); 1 (25-49% control) in the assay on Johnsongrass (4 WAT, 5.6 kg/h); 2 (50-74% control) in the assay with Johnsongrass (4 WAT, 11.2 kg/h); 0 (0-24% control) in the assay with Smartweed (4 WAT, 5.6 kg/h); 1 (25-49% control) with Smartweed (4 WAT, 11.2 kg/h). The “post-emergent herbicidal activity index” value with Yellow Nutsedge (4 WAT, 5.6 kg/h) is reported as 0 (0-24% control); in the assay with Yellow Nutsedge (4 WAT, 11.2 kg/h), 1 (25-49% control); with Quackgrass (4 WAT, 5.6 kg/h) it was 0 (0-24% control); in the assay with Quackgrass (4 WAT, 11.2 kg/h), 1 (25-49% control).
For `CCOC(=O)CNCP(=O)(OC1CCCSC1)OC1CCCSC1` (stereo not shown) [Example 20, glycine, N-[[bis[(tetrahydro-2H-thiopyran-3-yl)-oxy]-phosphinyl]methyl]-, ethyl ester], the “post-emergent herbicidal activity index” value in the assay with Cocklebur (2 WAT, 5.6 kg/h) is listed as 0 (0-24% control); with Cocklebur (4 WAT, 11.2 kg/h), 0 (0-24% control); in the assay with Barnyardgrass (2 WAT, 5.6 kg/h), 0 (0-24% control); in the assay on Barnyardgrass (4 WAT, 11.2 kg/h), 1 (25-49% control); with Lambsquarters (2 WAT, 5.6 kg/h) it was 0 (0-24% control); in the assay with Lambsquarters (4 WAT, 11.2 kg/h), 1 (25-49% control). Also, the “post-emergent herbicidal activity index” value is 0 (0-24% control) with Morningglory (2 WAT, 5.6 kg/h); 1 (25-49% control) in the assay on Morningglory (4 WAT, 11.2 kg/h); 0 (0-24% control) with Downy Brome (2 WAT, 5.6 kg/h); 0 (0-24% control) in the assay with Downy Brome (4 WAT, 11.2 kg/h); 0 (0-24% control) in the assay with Velvetleaf (2 WAT, 5.6 kg/h); 1 (25-49% control) with Velvetleaf (4 WAT, 11.2 kg/h). Further, the “post-emergent herbicidal activity index” value in the assay on Canada Thistle (2 WAT, 5.6 kg/h) is given as 0 (0-24% control); with Canada Thistle (4 WAT, 11.2 kg/h) it was 0 (0-24% control); in the assay on Johnsongrass (2 WAT, 5.6 kg/h) it was 0 (0-24% control); in the assay with Johnsongrass (4 WAT, 11.2 kg/h) it was 0 (0-24% control); in the assay on Smartweed (2 WAT, 5.6 kg/h), 0 (0-24% control); in the assay on Smartweed (4 WAT, 11.2 kg/h) it was 0 (0-24% control). Further, the “post-emergent herbicidal activity index” value is listed as 0 (0-24% control) with Yellow Nutsedge (2 WAT, 5.6 kg/h); 0 (0-24% control) in the assay with Yellow Nutsedge (4 WAT, 11.2 kg/h); 0 (0-24% control) in the assay with Quackgrass (2 WAT, 5.6 kg/h); 1 (25-49% control) with Quackgrass (4 WAT, 11.2 kg/h).
On to `CCOC(=O)CNCP(=O)(OCc1ccco1)OCc1ccco1` [Example 21, glycine, N-[[bis(2-furanylmethoxy)phosphinyl]methyl]-, ethyl ester], for which the “post-emergent herbicidal activity index” value was 0 (0-24% control) with Cocklebur (4 WAT, 11.2 kg/h); 2 (50-74% control) with Cocklebur (4 WAT, 56.0 kg/h); 0 (0-24% control) with Barnyardgrass (4 WAT, 11.2 kg/h); 2 (50-74% control) in the assay with Barnyardgrass (4 WAT, 56.0 kg/h); 0 (0-24% control) in the assay on Lambsquarters (4 WAT, 11.2 kg/h); 1 (25-49% control) in the assay on Lambsquarters (4 WAT, 56.0 kg/h). Also, the “post-emergent herbicidal activity index” value with Morningglory (4 WAT, 11.2 kg/h) is 1 (25-49% control); in the assay on Morningglory (4 WAT, 56.0 kg/h), 2 (50-74% control); in the assay on Downy Brome (4 WAT, 11.2 kg/h), 0 (0-24% control); in the assay with Downy Brome (4 WAT, 56.0 kg/h), 1 (25-49% control); with Velvetleaf (4 WAT, 11.2 kg/h), 0 (0-24% control); in the assay on Velvetleaf (4 WAT, 56.0 kg/h), 1 (25-49% control). For the same compound, the “post-emergent herbicidal activity index” value in the assay with Canada Thistle (4 WAT, 11.2 kg/h) is on record as 0 (0-24% control); in the assay on Canada Thistle (4 WAT, 56.0 kg/h), 3 (75-99% control); in the assay with Johnsongrass (4 WAT, 11.2 kg/h) it was 0 (0-24% control); in the assay with Johnsongrass (4 WAT, 56.0 kg/h), 0 (0-24% control); with Smartweed (4 WAT, 11.2 kg/h) it was 0 (0-24% control); in the assay on Smartweed (4 WAT, 56.0 kg/h), 1 (25-49% control). For the same compound, the “post-emergent herbicidal activity index” value with Yellow Nutsedge (4 WAT, 11.2 kg/h) is 0 (0-24% control); in the assay with Yellow Nutsedge (4 WAT, 56.0 kg/h) it was 1 (25-49% control); in the assay with Quackgrass (4 WAT, 11.2 kg/h) it was 0 (0-24% control); with Quackgrass (4 WAT, 56.0 kg/h) it was 0 (0-24% control).
